Results reported in patent publication US20080194574A1, “Pyrazine Derivatives As Effective Compounds Against Infectious Diseases” (AXXIMA PHARMACEUTICALS AG, priority 2003, published 2008).

Target: T1, viral kinase pUL-97 (Human cytomegalovirus, UniProt P16788)
T1 construct: The pUL-97 gene was cloned into a baculovirus vector; GST (glutathione S-transferase) (N); made in house; host or cells: Sf9 insect cells, baculovirus
Assay: UL97 kinase assay on Immobilon plate
Assay type: biochemical
Details: inhibition of UL 97 kinase activity; class by IC50 / % inhibition at 10 or 100 μM; read-out: Activity Class [A, B, C]
Method: UL97 Kinase-Assay on Immobilon Plate
The effect of pyrazine derivatives of this invention was tested on the activity of the viral kinase pUL-97. This kinase is derived from human cytomegalovirus (HCMV) (M. Marschall et al., Journal of General Virology, 2001, 82, 1439-1450). The pUL-97 gene was cloned into a baculovirus vector in order to produce GST (glutathione S-transferase) fusion protein. Insect cells (Sf9) were infected and GST-UL-97 purified via glutathione affinity columns according to standard procedures.
The pUL-97 kinase reaction was performed as described (M. Marschall et al., Journal of General Virology, 2001, 82, 1439-1450). Briefly, 10 μl Assay buffer (3 μM ATP, 60 μg/ml myelin basic protein (MBP) as substrate), 1.0 μCi γ-[^33P]ATP and 10 μl Basic buffer (20 mM Tris-HCl pH7.5, 0.5 mM MnCl2, 1 mM DTT (Dithiothreitol)) were given to the test tube before adding various concentrations of pyrazine derivatives. The reaction was started by adding 0.2 μl pUL-97 kinase, purified from infected Sf9-insect cells as described above. The total volume was adjusted with Basic buffer to a final volume of 30 μl. The reaction mix was incubated for 1 hr at 30° C. For negative control, 10 μl 0.1M EDTA (Ethylene Diamine tetraacetate) was added to reaction mix before addition of pUL-97 protein kinase. The reaction was stopped by addition of 10 μl 0.1 M EDTA.
Measuring Incorporation of Radioactivity:
The Immobilon plate (Millipore) was rinsed with 50 μl methanol/well. Following addition of 100 μl 0.1 M EDTA, 20 μl of each kinase reaction mix was added to one well of the Immobilon plate. Each well was washed 4× with 250 μl 0.75% phosphoric acid and 1× with 50 μl methanol. After addition of 50 μl scintillation cocktail (Roth, Germany) per well incorporation of radioactivity was measured using a Betareader (Wallac) and enzymatic activity calculated.

T1 sequence (P16788 whole entry): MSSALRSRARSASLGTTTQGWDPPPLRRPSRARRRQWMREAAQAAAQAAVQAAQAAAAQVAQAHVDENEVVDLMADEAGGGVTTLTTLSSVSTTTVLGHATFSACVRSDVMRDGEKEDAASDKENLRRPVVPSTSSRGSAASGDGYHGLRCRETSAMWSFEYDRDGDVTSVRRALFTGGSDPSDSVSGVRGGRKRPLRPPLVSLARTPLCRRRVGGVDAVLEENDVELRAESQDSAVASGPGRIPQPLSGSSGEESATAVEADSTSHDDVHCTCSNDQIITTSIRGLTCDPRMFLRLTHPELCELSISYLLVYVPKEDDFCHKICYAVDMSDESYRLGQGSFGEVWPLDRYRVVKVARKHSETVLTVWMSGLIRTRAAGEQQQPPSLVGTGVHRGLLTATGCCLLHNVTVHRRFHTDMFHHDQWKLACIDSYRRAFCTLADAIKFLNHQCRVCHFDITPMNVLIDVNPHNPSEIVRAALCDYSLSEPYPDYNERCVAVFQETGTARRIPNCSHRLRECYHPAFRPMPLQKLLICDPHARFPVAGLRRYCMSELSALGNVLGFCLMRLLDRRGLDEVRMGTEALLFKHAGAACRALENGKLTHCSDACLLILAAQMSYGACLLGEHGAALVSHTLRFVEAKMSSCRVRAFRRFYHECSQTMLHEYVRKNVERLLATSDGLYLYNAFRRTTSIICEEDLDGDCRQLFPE

Compound | IC50
6′-(4-Methylsulfanyl-phenyl)-4-pyridin-4-yl-3,4,5,6-tetrahydro-2H-[1,2′]bipyrazinyl [compound 66] | 1 to 10 µM
6′-Benzo[b]thiophen-2-yl-4-pyridin-4-yl-3,4,5,6-tetrahydro-2H-[1,2′]bipyrazinyl [compound 69] | < 1 µM
NC(=O)c1ccc(-c2cncc(N3CCN(c4ccccn4)CC3)n2)cc1 [Comp. 15, 4-(4-Pyridin-2-yl-3,4,5,6-tetrahydro-2H-[1,2′]bipyrazinyl-6′-yl)-benzamide] | < 1 µM
NC(=O)c1ccc(-c2cncc(N3CCN(c4ccncc4)CC3)n2)cc1 [Comp. 21, 4-(4-Pyridin-4-yl-3,4,5,6-tetrahydro-2H-[1,2′]bipyrazinyl-6′-yl)-benzamide] | < 1 µM
NC(=O)c1ccc(-c2cncc(N3CCN(c4ccccc4)CC3)n2)cc1 [Comp. 68, 4-(4-Phenyl-3,4,5,6-tetrahydro-2H-[1,2′]bipyrazinyl-6′-yl)-benzamide] | < 1 µM
NC(=O)c1ccccc1-c1cncc(N2CCN(c3ccncc3)CC2)n1 [Comp. 70, 2-(4-Pyridin-4-yl-3,4,5,6-tetrahydro-2H-[1,2′]bipyrazinyl-6′-yl)-benzamide] | 10 to 100 µM
NC(=O)c1cccc(-c2cncc(N3CCN(c4ccncc4)CC3)n2)c1 [Comp. 71, 3-(4-Pyridin-4-yl-3,4,5,6-tetrahydro-2H-[1,2′]bipyrazinyl-6′-yl)-benzamide] | 1 to 10 µM
c1ccc2cc(-c3cncc(N4CCN(c5ccncc5)CC4)n3)ccc2c1 [Comp. 72, 6′-Naphthalen-2-yl-4-pyridin-4-yl-3,4,5,6-tetrahydro-2H-[1,2-′]bipyrazinyl] | < 1 µM
Clc1ccc(-c2cncc(N3CCN(c4ccccn4)CC3)n2)cc1 [compound 14, 6′-(4-Chloro-phenyl)-4-pyridin-2-yl-3,4,5,6-tetrahydro-2H-[1,2′]bipyrazinyl] | 10 to 100 µM
CN(C)c1cccc(-c2cncc(N3CCN(c4ccncc4)CC3)n2)c1 [compound 16, Dimethyl-[3-(4-pyridin-4-yl-3,4,5,6-tetrahydro-2H-[1,2′]bipyrazinyl-6′-yl)-phenyl]-amine] | 10 to 100 µM
c1ccc2cc(-c3cncc(N4CCN(CCN5CCCC5)CC4)n3)ccc2c1 [compound 17, 6′-Naphthalen-2-yl-4-(2-pyrrolidin-1-yl-ethyl)-3,4,5,6-tetrahydro-2H-[1,2′]bipyrazinyl] | < 1 µM
COc1ccc(-c2cncc(NCCc3cccnc3)n2)cc1 [compound 18] | < 1 µM
Fc1ccc(-c2cncc(N3CCN(c4ccccn4)CC3)n2)c(F)c1 [compound 19, 6′-(2,4-Difluoro-phenyl)-4-pyridin-2-yl-3,4,5,6-tetrahydro-2H-[1,2′]bipyrazinyl] | 10 to 100 µM
COc1ccc(N2CCN(c3cncc(-c4ccc(C(N)=O)cc4)n3)CC2)cc1OC [compound 20, 4-[4-(3,4-Dimethoxyphenyl)-3,4,5,6-tetrahydro-2H-[1,2′]bipyrazinyl-6′-yl)-benzamide] | < 1 µM
c1coc(CNc2cncc(-c3cc4ccccc4o3)n2)c1 [compound 23, (6-Benzofuran-2-yl-pyrazin-2-yl)-furan-2-ylmethyl-amine] | 10 to 100 µM
OCC1CCCN1c1cncc(-c2cc3ccccc3o2)n1 (centres unmarked) [compound 24, [1-(6-Benzofuran-2-yl-pyrazin-2-yl)-pyrrolidin-2-yl]-methanol] | 1 to 10 µM
CCCNc1cncc(-c2ccc(C(N)=O)cc2)n1 [compound 25, 4-(6-Propylamino-pyrazin-2-yl)-benzamide] | < 1 µM
Clc1ccc(-c2cncc(NCc3ccco3)n2)cc1 [compound 26, [6-(4-Chloro-phenyl)-pyrazin-2-yl]-furan-2-ylmethyl-amine] | < 1 µM
Clc1ccc(-c2cncc(NCc3ccccc3)n2)cc1 [compound 27, Benzyl-[6-(4-chloro-phenyl)-pyrazin-2-yl]-amine] | 10 to 100 µM
NC(=O)c1ccc(-c2cncc(NCc3ccccc3)n2)cc1 [compound 28, 4-(6-Benzylamino-pyrazin-2-yl)-benzamide] | < 1 µM
Oc1ccc(-c2cncc(NCc3cccs3)n2)cc1 [compound 30, 4-{6-[(Thiophen-2-ylmethyl)-amino]-pyrazin-2-yl}-phenol] | < 1 µM

Compound | IC50
c1ccc(N2CCN(c3cncc(-c4cccs4)n3)CC2)nc1 [compound 31, 4-Pyridin-2-yl-6′-thiophen-2-yl-3,4,5,6-tetrahydro-2H-[1,2′]bipyrazinyl] | 10 to 100 µM
FC(F)(F)c1cccc(-c2cncc(N3CCN(c4ccncc4)CC3)n2)c1 [compound 32, 4-Pyridin-4-yl-6′-(3-trifluoromethyl-phenyl)-3,4,5,6-tetrahydro-2H-[1,2′]bipyrazinyl] | < 1 µM
Fc1ccc(-c2cncc(N3CCN(c4ccncc4)CC3)n2)cc1Cl [compound 33, 6′-(3-Chloro-4-fluoro-phenyl)-4-pyridin-4-yl-3,4,5,6-tetrahydro-2H-[1,2′]bipyrazinyl] | < 1 µM
NC(=O)c1ccc(-c2cncc(N3CCN(C(=O)c4ccco4)CC3)n2)cc1 [compound 34, 4-[4-(Furan-2-carbonyl)-3,4,5,6-tetrahydro-2H-[1,2′]bipyrazinyl-6′-yl]-benzamide] | < 1 µM
NC(=O)c1ccc(-c2cncc(NCCc3c[nH]c4ccccc34)n2)cc1 [compound 35, 4-{6-[2-(1H-Indol-3-yl)-ethylamino]-pyrazin-2-yl}-benzamide] | < 1 µM
CC(=O)Nc1cccc(-c2cncc(N3CCN(c4cccc5[nH]ccc45)CC3)n2)c1 [compound 36, N-{3-[4-(1H-Indol-4-yl)-3,4,5,6-tetrahydro-2H-[1,2′]bipyrazinyl-6′-yl]-phenyl}-acetamide] | 10 to 100 µM
COc1cc(-c2cncc(N3CCN(c4cccc5[nH]ccc45)CC3)n2)cc(OC)c1OC [compound 37, 4-(1H-Indol-4-yl)-6′-(3,4,5-trimethoxy-phenyl)-3,4,5,6-tetrahydro-2H-[1,2′]bipyrazinyl] | 10 to 100 µM
COc1ccc(-c2cncc(N3CCN(c4cccc5[nH]ccc45)CC3)n2)cc1 [compound 38, 4-(1H-Indol-4-yl)-6′-(4-methoxy-phenyl)-3,4,5,6-tetrahydro-2H-[1,2′]bipyrazinyl] | 1 to 10 µM
O=C(NCCO)c1cccc(-c2cncc(N3CCN(c4ccncc4)CC3)n2)c1 [compound 39, N-(2-Hydroxy-ethyl)-3-(4-pyridin-4-yl-3,4,5,6-tetrahydro-2H-[1,2′]bipyrazinyl-6′-yl)-benzamide] | 10 to 100 µM
CCNc1cncc(-c2ccc(C(N)=O)cc2)n1 [compound 40, 4-(6-Ethylamino-pyrazin-2-yl)-benzamide] | 1 to 10 µM
COc1ccc(N2CCN(c3cncc(-c4ccc(F)cc4F)n3)CC2)cc1OC [compound 41, 6′-(2,4-Difluoro-phenyl)-4-(3,4-dimethoxy-phenyl)-3,4,5,6-tetrahydro-2H-[1,2′]bipyrazinyl] | 10 to 100 µM
N#Cc1ccccc1N1CCN(c2cncc(-c3ccc(Cl)cc3)n2)CC1 [compound 42, 2-[6′-(4-Chloro-phenyl)-2,3,5,6-tetrahydro-[1,2′]bipyrazinyl-4-yl]-benzonitrile] | 1 to 10 µM
COc1ccc(N2CCN(c3cncc(-c4cccc5ccccc45)n3)CC2)cc1OC [compound 43, 4-(3,4-Dimethoxy-phenyl)-6′-naphthalen-1-yl-3,4,5,6-tetrahydro-2H-[1,2′]bipyrazinyl] | 10 to 100 µM
COc1ccc(N2CCN(c3cncc(-c4cccs4)n3)CC2)cc1OC [compound 44, 4-(3,4-Dimethoxy-phenyl)-6′-thiophen-2-yl-3,4,5,6-tetrahydro-2H-[1,2′]bipyrazinyl] | 1 to 10 µM
CCOc1ccc(-c2cncc(N3CCN(c4ccc(OC)c(OC)c4)CC3)n2)cc1 [compound 45, 4-(3,4-Dimethoxy-phenyl)-6′-(4-ethoxy-phenyl)-3,4,5,6-tetrahydro-2H-[1,2′]bipyrazinyl] | 1 to 10 µM
Fc1ccc(-c2cncc(N3CCN(c4ccncc4)CC3)n2)c(F)c1 [compound 46, 6′-(2,4-Difluoro-phenyl)-4-pyridin-4-yl-3,4,5,6-tetrahydro-2H-[1,2′]bipyrazinyl] | 1 to 10 µM
Clc1ccc(-c2cncc(N3CCN(c4ccncc4)CC3)n2)cc1 [compound 47, 6′-(4-Chloro-phenyl)-4-pyridin-4-yl-3,4,5,6-tetrahydro-2H-[1,2′]bipyrazinyl] | 1 to 10 µM
Fc1ccc(-c2cncc(NCc3ccco3)n2)c(F)c1 [compound 48, [6-(2,4-Difluoro-phenyl)-pyrazin-2-yl]-furan-2-ylmethyl-amine] | 1 to 10 µM
c1ccc(-c2cncc(N3CCN(c4ccccn4)CC3)n2)cc1 [compound 49] | 1 to 10 µM
Cc1ccc(-c2cncc(N3CCN(c4ccccn4)CC3)n2)cc1C [compound 50, 6′-(3,4-Dimethyl-phenyl)-4-pyridin-2-yl-3,4,5,6-tetrahydro-2H-[1,2′]bipyrazinyl] | 1 to 10 µM
